Laboratory results from the NIST ThermoML archive (doi:10.1016/j.jct.2006.03.010).
± gives the expanded uncertainty stated by the source.

Columns and labels:
[1] = 101 kPa, Liquid; for speed of sound: Linear variable-path acoustic interferometer
[2] = xn = mol fraction of the nth substance listed; conditions: 101 kPa, Liquid, x2 = 0; for speed of sound: Linear variable-path acoustic interferometer

| SMILES | mass density ([1]; 298.15 K) [kg/m3] | viscosity ([1]; 298.15 K) [mPa·s] | speed of sound ([1]; 298.15 K) [m/s] | mass density ([1]; 308.15 K) [kg/m3] | viscosity ([1]; 308.15 K) [mPa·s] | speed of sound ([1]; 308.15 K) [m/s] | speed of sound ([2]; 298.15 K) [m/s] | mass density ([2]; 298.15 K) [kg/m3] | viscosity ([2]; 298.15 K) [mPa·s] | speed of sound ([2]; 308.15 K) [m/s] | mass density ([2]; 308.15 K) [kg/m3] | viscosity ([2]; 308.15 K) [mPa·s] |
| --- | --- | --- | --- | --- | --- | --- | --- | --- | --- | --- | --- | --- |
| CCCCO [butan-1-ol] | 806.33 ± 0.5 | 2.585 ± 0.034 | 1235 ± 3 | 798.38 ± 0.54 | 2.012 ± 0.028 | 1210 ± 3 | – | – | – | – | – | – |
| CCCCO [butan-1-ol] + ClC(Cl)Cl | – | – | – | – | – | – | 1235 ± 3 | 806.33 ± 0.5 | 2.585 ± 0.034 | 1210 ± 3 | 798.38 ± 0.54 | 2.012 ± 0.028 |
| CCO [ethanol] | 784.32 ± 0.39 | 1.084 ± 0.014 | 1144 ± 3 | 775.51 ± 0.43 | 0.902 ± 0.013 | 1111 ± 3 | – | – | – | – | – | – |
| CCO [ethanol] + ClC(Cl)Cl | – | – | – | – | – | – | 1144 ± 3 | 784.32 ± 0.39 | 1.084 ± 0.014 | 1111 ± 3 | 775.51 ± 0.43 | 0.902 ± 0.013 |
| CO [methanol] | 786.3 ± 0.39 | 0.551 ± 0.009 | 1109 ± 3 | 776.6 ± 0.43 | 0.493 ± 0.009 | 1076 ± 3 | – | – | – | – | – | – |
| CO [methanol] + ClC(Cl)Cl | – | – | – | – | – | – | 1109 ± 3 | 786.3 ± 0.39 | 0.551 ± 0.009 | 1076 ± 3 | 776.6 ± 0.43 | 0.493 ± 0.009 |
| CCCO [propan-1-ol] | 800.82 ± 0.4 | 1.95 ± 0.024 | 1212 ± 3 | 792.51 ± 0.44 | 1.533 ± 0.02 | 1177 ± 3 | – | – | – | – | – | – |
| CCCO [propan-1-ol] + ClC(Cl)Cl | – | – | – | – | – | – | 1212 ± 3 | 800.82 ± 0.4 | 1.95 ± 0.024 | 1177 ± 3 | 792.51 ± 0.44 | 1.533 ± 0.02 |
| ClC(Cl)Cl [trichloromethane] | 1478.82 ± 1.2 | 0.556 ± 0.01 | 985 ± 3 | 1459.45 ± 1.2 | 0.513 ± 0.009 | 950 ± 2 | – | – | – | – | – | – |
